# Columns and labels:
# Assay type in all cases: functional
# Macrophage [1] = assay: Antiinflammatory activity in Escherichia coli O6:K2:H1-induced human M2 macrophage assessed as change in total LTB4 level at 1 uM preincubated for 10 mins followed by Escherichia coli O6:K2:H1-stimulation and measured after 180 mins by UPLC-MS/MS analysis relative to control
# Macrophage [2] = assay: Antiinflammatory activity in Escherichia coli O6:K2:H1-induced human M2 macrophage assessed as change in […] level at 10 uM preincubated for 10 mins followed by Escherichia coli O6:K2:H1-stimulation and measured after 180 mins by UPLC-MS/MS analysis relative to control
# Macrophage [3] = assay: Antiinflammatory activity in Escherichia coli O6:K2:H1-induced human M1 macrophage assessed as change in 15-HEPE level at 10 uM preincubated for 10 mins followed by Escherichia coli O6:K2:H1-stimulation and measured after 180 mins by UPLC-MS/MS analysis relative to control
# Macrophage [4] = assay: Antiinflammatory activity in Escherichia coli O6:K2:H1-induced human M1 macrophage assessed as change in 12-HETE level at 10 uM preincubated for 10 mins followed by Escherichia coli O6:K2:H1-stimulation and measured after 180 mins by UPLC-MS/MS analysis relative to control
# Macrophage [5] = assay: Antiinflammatory activity in Escherichia coli O6:K2:H1-induced human M2 macrophage assessed as change in 18-HEPE level at 1 uM preincubated for 10 mins followed by Escherichia coli O6:K2:H1-stimulation and measured after 180 mins by UPLC-MS/MS analysis relative to control
# Macrophage [6] = assay: Antiinflammatory activity in Escherichia coli O6:K2:H1-induced human M1 macrophage assessed as change in PGE2 level at 10 uM preincubated for 10 mins followed by Escherichia coli O6:K2:H1-stimulation and measured after 180 mins by UPLC-MS/MS analysis relative to control
# Macrophage [7] = assay: Antiinflammatory activity in Escherichia coli O6:K2:H1-induced human M1 macrophage assessed as change in […] level at 10 uM preincubated for 10 mins followed by Escherichia coli O6:K2:H1-stimulation and measured after 180 mins by UPLC-MS/MS analysis relative to control
# Macrophage [8] = assay: Antiinflammatory activity in Escherichia coli O6:K2:H1-induced human M2 macrophage assessed as change in PGE2 level at 10 uM preincubated for 10 mins followed by Escherichia coli O6:K2:H1-stimulation and measured after 180 mins by UPLC-MS/MS analysis relative to control
# Macrophage [9] = assay: Antiinflammatory activity in Escherichia coli O6:K2:H1-induced human M2 macrophage assessed as change in 15-HETE level at 10 uM preincubated for 10 mins followed by Escherichia coli O6:K2:H1-stimulation and measured after 180 mins by UPLC-MS/MS analysis relative to control
# Macrophage [10] = assay: Antiinflammatory activity in Escherichia coli O6:K2:H1-induced human M1 macrophage assessed as change in PGD2 level at 10 uM preincubated for 10 mins followed by Escherichia coli O6:K2:H1-stimulation and measured after 180 mins by UPLC-MS/MS analysis relative to control
# Macrophage [11] = assay: Antiinflammatory activity in Escherichia coli O6:K2:H1-induced human M2 macrophage assessed as change in 4-HDHA level at 10 uM preincubated for 10 mins followed by Escherichia coli O6:K2:H1-stimulation and measured after 180 mins by UPLC-MS/MS analysis relative to control
structure (smiles),measurement,setting,value
O=C(Cc1ccc(Oc2nc3ccccc3s2)cc1F)NCCc1ccc(F)cc1,Activity,Macrophage [1],83%
same,Activity,Macrophage [2],26%
same,Activity,Macrophage [3],191%
same,Activity,Macrophage [4],131%
same,Activity,Macrophage [5],86%
same,Activity,Macrophage [6],77%
same,Activity,Macrophage [7],82%
same,Activity,Macrophage [8],51%
same,Activity,Macrophage [9],123%
same,Activity,Macrophage [10],97%
same,Activity,Macrophage [11],78%
